ChEMBL document CHEMBL1121470, “Synthesis and antiinflammatory activity of some 2-(substituted-pyridinyl)benzimidazoles” (J Med Chem, 1980)

Key:
[1] = system: Rattus norvegicus; experiment: Antiinflammatory activity by carrageenan-induced rat paw edema assay after 3 hr at 100 mg/kg concentration administered perorally.; assay type: functional; conditions: route oral
[2] = system: Rattus norvegicus; experiment: Antiinflammatory activity was evaluated by carrageenan-induced rat paw edema assay after 3 hr at 100 mg/kg concentration administered perorally; assay type: functional; conditions: route oral
[3] = system: Mus musculus; experiment: Compound was evaluated for analgesia at 100 mg/kg when administered perorally (- = positive mice</=1); assay type: functional; conditions: route oral
[4] = Compound was evaluated for lethal dose in mice when administarted intraperitoneally; assay type: toxicity, organism-based; conditions: mouse, in vivo, ip
[5] = system: Rattus norvegicus; experiment: Antiinflammatory activity was evaluated by contund edema after 3 hr at 200 mg/kg concentration administered perorally; assay type: functional; conditions: route oral
[6] = system: Mus musculus; experiment: Compound was evaluated for analgesia at 100 mg/kg when administered perorally (+ = positive mice >/=2); assay type: functional; conditions: route oral
[7] = Compound was tested for acute toxicity when administered intraperitoneally in mice; assay type: organism-based; conditions: mouse, in vivo, ip
[8] = molecular target: T1, Cyclooxygenase (Rattus norvegicus, UniProt P35355+Q63921); experiment: Compound was tested for inhibition of prostaglandin synthetase […]; assay type: protein assay
T1 sequence (P35355 whole entry): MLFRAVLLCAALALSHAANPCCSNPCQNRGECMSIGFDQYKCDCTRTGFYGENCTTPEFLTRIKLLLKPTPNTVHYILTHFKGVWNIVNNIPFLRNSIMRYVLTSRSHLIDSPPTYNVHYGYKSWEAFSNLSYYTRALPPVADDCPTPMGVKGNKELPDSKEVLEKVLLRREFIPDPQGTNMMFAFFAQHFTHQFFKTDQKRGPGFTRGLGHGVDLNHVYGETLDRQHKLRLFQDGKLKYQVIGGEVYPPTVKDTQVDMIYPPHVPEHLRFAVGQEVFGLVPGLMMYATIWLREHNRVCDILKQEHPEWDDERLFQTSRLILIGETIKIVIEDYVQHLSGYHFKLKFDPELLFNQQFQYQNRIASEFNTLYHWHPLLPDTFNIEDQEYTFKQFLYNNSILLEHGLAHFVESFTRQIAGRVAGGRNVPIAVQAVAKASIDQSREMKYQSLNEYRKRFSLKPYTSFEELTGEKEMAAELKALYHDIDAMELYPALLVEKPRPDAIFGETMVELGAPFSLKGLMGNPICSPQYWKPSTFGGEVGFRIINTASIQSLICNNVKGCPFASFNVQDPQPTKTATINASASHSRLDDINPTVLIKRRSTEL
T1 sequence (Q63921 whole entry): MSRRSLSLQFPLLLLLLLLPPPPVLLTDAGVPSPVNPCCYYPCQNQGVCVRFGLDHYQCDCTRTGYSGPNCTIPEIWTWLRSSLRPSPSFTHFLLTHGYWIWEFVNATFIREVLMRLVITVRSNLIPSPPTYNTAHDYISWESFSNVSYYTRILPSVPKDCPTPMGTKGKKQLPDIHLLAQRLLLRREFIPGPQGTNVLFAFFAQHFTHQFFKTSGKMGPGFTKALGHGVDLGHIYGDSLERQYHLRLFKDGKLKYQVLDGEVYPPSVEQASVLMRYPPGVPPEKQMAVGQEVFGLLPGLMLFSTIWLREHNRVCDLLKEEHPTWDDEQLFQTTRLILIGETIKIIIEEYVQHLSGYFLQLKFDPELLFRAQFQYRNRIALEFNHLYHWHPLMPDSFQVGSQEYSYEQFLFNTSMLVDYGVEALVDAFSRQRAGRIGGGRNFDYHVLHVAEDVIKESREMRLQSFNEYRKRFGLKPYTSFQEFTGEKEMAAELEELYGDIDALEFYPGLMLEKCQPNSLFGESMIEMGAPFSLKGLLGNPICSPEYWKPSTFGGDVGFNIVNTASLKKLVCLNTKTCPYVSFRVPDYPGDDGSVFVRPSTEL

[9] = system: Rattus norvegicus; experiment: Compound was tested for inhibition of carrageenan induced edema when administered perorally; assay type: functional; conditions: po
[10] = system: Rattus norvegicus; experiment: Compound was tested for inhibition of contund edema when administered perorally; assay type: functional; conditions: po
[11] = system: Rattus norvegicus; experiment: Compound was tested for inhibition of scald edema when administered perorally; assay type: functional; conditions: po
[12] = system: Rattus norvegicus; experiment: Compound was tested for analgesia by Acetic acid writhing method when administered perorally; assay type: functional; conditions: po
[13] = system: Rattus norvegicus; experiment: Compound was tested for anti-pyrexia (Yeast-induced pyrexia) when administered perorally; assay type: functional; conditions: po
[14] = system: Rattus norvegicus; experiment: Compound was tested for ulcerogenicity when administered perorally; assay type: functional
[15] = system: Mus musculus; experiment: Compound was evaluated for analgesia at 100 mg/kg when administered perorally (+ = positive mice >/= 2); assay type: functional; conditions: route oral
[16] = system: Mus musculus; experiment: Compound was evaluated for analgesic activity at 100 mg/kg when administered perorally (- = positive mice</= 1); assay type: functional; conditions: route oral
[17] = system: Rattus norvegicus; experiment: Antiinflammatory activity was evaluated by contund edema assay after 3 hr at 200 mg/kg concentration administered perorally; assay type: functional; conditions: route oral
[18] = system: Rattus norvegicus; experiment: Antiinflammatory activity was evaluated by carrageenan-induced rat paw edema assay after 3 hr at 100 mg/kg concentration administered perorally (=p</=0.01); assay type: functional; conditions: route oral
[19] = system: Rattus norvegicus; experiment: Antiinflammatory activity was evaluated by carrageenan-induced rat paw edema assay after 3 hr at 100 mg/kg concentration administered perorally (=p< 0.05); assay type: functional; conditions: route oral
[20] = system: Mus musculus; experiment: Compound was tested for acute toxicity when administered perorally; assay type: functional; conditions: po
[21] = system: Rattus norvegicus; experiment: Compound was tested for analgesia when administered perorally; assay type: functional; conditions: po
[22] = system: Rattus norvegicus; experiment: Compound was tested for anti-pyrexia when administered perorally; assay type: functional; conditions: po
[23] = system: Rattus norvegicus; experiment: Compound was tested for inhibition of contund edema when administered perorally; conditions: po

SMILES	inhibition in vivo at 100 mg/kg [1]	inhibition in vivo at 100 mg/kg [2]	further results
Cc1ccc(-c2nc3ccccc3n2CC(=O)N2CCN(CCO)CC2)nc1	14%	–	–
CCOC(=O)c1cccc(-c2nc3ccccc3[nH]2)n1	–	31%	–
CCc1cccc(-c2nc3cc(OC)ccc3[nH]2)n1	52%	–	Activity [3]: 1; LD50 [4]: > 300 mg/kg; inhibition in vivo at 200 mg/kg [5]: 87%
CCc1cccc(-c2nc3ccccc3[nH]2)n1	–	41%	LD50 [4]: > 300 mg/kg; inhibition in vivo at 200 mg/kg [5]: 85%
CCc1ccc(-c2nc3ccccc3[nH]2)nc1	–	44%	Activity [6]: 2; LD50 [4]: 1230 mg/kg; LD50 [7]: 1230 mg/kg; IC50 [8]: 0.000076 M; ED40 [9]: 70 mg/kg; ED40 [10]: 142 mg/kg; ED40 [11]: 110 mg/kg; ED50 [12]: 140 mg/kg; ED60 [13]: 68 mg/kg; inhibition in vivo at 200 mg/kg [5]: 81%; UD50 [14]: 200 mg/kg
Cc1cccc(-c2nc3cc(Cl)ccc3[nH]2)n1	39%	–	Activity [3]: 1; LD50 [4]: 1230 mg/kg; inhibition in vivo at 200 mg/kg [5]: 95%
Cc1cccc(-c2nc3cc(O)ccc3[nH]2)n1	6%	–	–
CCOC(=O)c1ccc(-c2nc3ccccc3[nH]2)nc1	–	-16%	–
O=C(Cn1c(-c2ccccn2)nc2ccccc21)N1CCN(CCO)CC1	-4%	–	–
CCc1ccc(-c2nc3cc(Cl)ccc3[nH]2)nc1	-2%	–	–
COc1ccc2[nH]c(-c3ccccn3)nc2c1	–	34%	–
CCc1ccc(-c2nc3ccccc3n2Cc2ccccc2)nc1	-18%	–	–
Clc1cccc(-c2nc3ccccc3[nH]2)n1	–	30%	–
Cc1cccnc1-c1nc2ccccc2[nH]1	–	17%	–
CCc1cccc(-c2nc3cc(C)ccc3[nH]2)n1	10%	–	–
COc1ccc2[nH]c(-c3cccc(C)n3)nc2c1	40%	–	Activity [3]: 1; LD50 [4]: 3730 mg/kg; inhibition in vivo at 200 mg/kg [5]: 39%
COc1cccc(-c2nc3ccccc3[nH]2)n1	–	47%	Activity [15]: >=2; LD50 [4]: > 300 mg/kg
Cc1ccc2[nH]c(-c3cccc(C)n3)nc2c1	42%	–	Activity [3]: 1; LD50 [4]: 812 mg/kg; inhibition in vivo at 200 mg/kg [5]: 67%
CCc1ccc(-c2nc3ccccc3n2CC(=O)OC)nc1	9%	–	–
Cc1cccc(-c2nc3ccccc3[nH]2)n1	–	44%	Activity [16]: 1; LD50 [4]: 3250 mg/kg; inhibition in vivo at 200 mg/kg [17]: 59%
Cc1ccc(-c2nc3cc(C)ccc3[nH]2)nc1	–	7%	–
OCc1ccc(-c2nc3ccccc3[nH]2)nc1	–	-10%	–
Cc1ccc(-c2nc3ccccc3[nH]2)nc1	–	19%	–
CCc1ccc(-c2nc3cc(N)ccc3[nH]2)nc1	25%	–	–
Cc1ccc(-c2nc3ccccc3[nH]2)nc1C	37%	–	–
CCc1ccc(-c2nc3ccccc3n2C)nc1	5%	–	–
CCc1ccc(-c2nc3cc(NC(C)=O)ccc3[nH]2)nc1	5%	–	–
NC(=O)c1cccc(-c2nc3ccccc3[nH]2)n1	–	13%	–

SMILES	inhibition in vivo at 100 mg/kg [1]	inhibition in vivo at 100 mg/kg [2]	further results
Cc1ccc(-c2nc3ccccc3n2CC(=O)N2CCCC2)nc1	14%	–	–
CCc1ccc(-c2nc3ccccc3n2CC(=O)N2CCN(CCO)CC2)nc1	4%	–	–
Oc1cccc(-c2nc3ccccc3[nH]2)n1	–	-7%	–
Cc1ccc2[nH]c(-c3ccc(C)c(C)n3)nc2c1	-19%	–	–
CCc1ccc(-c2nc3cc(OC)ccc3[nH]2)nc1	–	–	Activity [3]: 1; LD50 [4]: > 300 mg/kg; inhibition in vivo at 100 mg/kg [18]: 58%
Clc1ccc2nc(-c3ccccn3)[nH]c2c1	–	36%	–
CCCCc1ccc(-c2nc3ccccc3[nH]2)nc1	–	-16%	–
OCc1cccc(-c2nc3ccccc3[nH]2)n1	–	-13%	–
CCc1ccc(-c2nc3cc(C)ccc3[nH]2)nc1	–	–	inhibition in vivo at 100 mg/kg [19]: 35%
CCc1ccc(-c2nc3cc([N+](=O)[O-])ccc3[nH]2)nc1	-5%	–	–
Cc1ccc(-c2nc3ccccc3n2CC(=O)N2CCCCC2)nc1	2%	–	–
Cc1ccc(-c2nc3ccccc3n2CCN(C)C)nc1	12%	–	–
Cc1ccnc(-c2nc3ccccc3[nH]2)c1	–	-4%	–
COC(=O)Cn1c(-c2ccccn2)nc2ccccc21	-17%	–	–
Cc1ccc2[nH]c(-c3cccc(Cl)n3)nc2c1	–	36%	–
Cc1ccc2[nH]c(-c3cccc(O)n3)nc2c1	-6%	–	–
CCc1ccc(-c2nc3ccccc3n2-c2ccccc2)nc1	12%	–	–
Cc1ccc(-c2nc3cc(Cl)ccc3[nH]2)nc1	-5%	–	–
CCc1cccc(-c2nc3cc(Cl)ccc3[nH]2)n1	3%	–	–
Cc1ccc2nc(-c3ccccn3)[nH]c2c1	–	35%	–
Cc1ccc(-c2nc3ccccc3n2CC(=O)N2CCN(C)CC2)nc1	11%	–	–
CCc1ccc(-c2nc3cc(O)ccc3[nH]2)nc1	25%	–	–
CCc1ccc(-c2nc3ccccc3n2CC(=O)N2CCCC2)nc1	-5%	–	–
COc1cccc(-c2nc3cc(C)ccc3[nH]2)n1	32%	–	–
c1ccc(-c2nc3ccccc3[nH]2)nc1	–	22%	–
CCCCC1C(=O)N(c2ccccc2)N(c2ccccc2)C1=O [PHENYLBUTAZONE]	43%	–	LD50 [20]: 616 mg/kg; IC50 [8]: 0.000015 M; ED40 [9]: 100 mg/kg; ED40 [11]: 180 mg/kg; ED50 [21]: 280 mg/kg; ED60 [22]: 44 mg/kg; UD50 [14]: 142 mg/kg; ED40 [23]: 200 mg/kg
Cl.O=C(Cn1c(=O)sc2ccc(Cl)cc21)N1CCN(CCO)CC1 [TIARAMIDE HYDROCHLORIDE]	31%	–	LD50 [20]: 203 mg/kg; IC50 [8]: > 0.0001 M; ED40 [9]: 160 mg/kg; ED40 [11]: 200 mg/kg; ED50 [21]: 76 mg/kg; ED60 [22]: 100 mg/kg; UD50 [14]: 163 mg/kg; ED40 [23]: 200 mg/kg
